Common to all, as to assay type: in vivo, Lewis rats
Experiment [1] relates to Endotoxin-Induced Uveitis (EIU). The experiment in a line: Scoring of Endotoxin-Induced Uveitis (EIU) by slit lamp. The following applies: intravitreous (IVT) administration at LPS challenge (SEQ ID NO: 11: 0.2 µg/injection); scored at 24 hours on a scale from 0 to 5; mean ± SEM. As to the method:
For intravenous (IV) injection, 100 µL of saline (NaCl 0.9%) or the JNK-inhibitor (poly-)peptide of SEQ ID NO: 11 (20 µg/kg in saline) were injected in a tail vein using a 25G-needle connected on a 1 mL syringe (Becton Dickinson, France). For intravitreous (IVT) injection, 5 µL of saline or the JNK-inhibitor (poly-)peptide of SEQ ID NO: 11 (0.2 µg/injection in saline) were injected in both eyes using a 30G disposable needle (BD-microfine syringe, nm Médical, Asnière, France). The IV dose of 20 µg/kg (i.e. 3.5 µg/rat in rats weighing 175g) was chosen according to studies showing that the JNK-inhibitor (poly-)peptide of SEQ ID NO: 11 is active at very low doses in other models. For intravitreous injections, the inventors used the minimal dose used in direct ear application after acute noise trauma in patients. This corresponds to 5% of the dose injected intravenously. […]
In a first set of experiment, 70 rats were randomized into 14 experimental groups with 5 rats per group. […] Clinical ocular inflammation was recorded only at 24 hours (see Scoring of Endotoxin-Induced Uveitis (EIU) section). […]
Animals were examined by slit lamp at 24 hours, the clinical peak of the disease in our experiments. The intensity of clinical ocular inflammation was scored on a scale from 0 to 5 for each eye as described previously 10: grade (0) indicates no inflammation; grade (1) indicates the presence of a minimal iris and conjunctival vasodilation but without the observation of flare or cells in the anterior chamber (AC); grade (2) indicates the presence of moderate iris and conjunctival vessel dilation but without evident flare or cells in the AC; grade (3) indicates the presence of intense iris vessels dilation, flare and less than 10 cells per slit lamp field in the AC; grade (4) indicates the presence of more severe clinical signs than grade 3, with more than 10 cells in the AC with or without the formation of a hypopion; grade (5) indicates the presence of intense inflammatory reaction, fibrin formation in the AC and total seclusion of the pupil. […]

In the next experiment the test system is ED1 positive cells. The experiment in a line: Quantification of infiltrating ED1 positive cells on histological sections in EIU. Particulars: IVT injection (SEQ ID NO: 11: 0.2 µg/injection); 24 hours after LPS challenge; mean ± SEM. As to the method: (§1) For immunohistochemistry, eyeballs were collected and fixed for 1h at room temperature in phosphate buffered saline (PBS) containing 4% paraformaldehyde before being rinsed overnight in PBS. The next day, samples were embedded and frozen in optimal cutting-temperature (OCT) compound (Tissue-Tek®, Sakura Finetek, Zoeterwoude, Netherland) and stored at -80°C. Frozen antero-posterior sections of eyes (10 µm thick) were performed at the optic nerve level using a cryostat (Leica CM 3050S, Rueil-Malmaison, France) and mounted on super-frost slides for immunohistochemical analysis.
(§2) A second set of experiment was designed to evaluate the anti-inflammatory effect of the JNK-inhibitor (poly-)peptide of SEQ ID NO: 11 at the cellular and tissue level as well as the biodistribution of this molecule 24 hours after administration. Rats were randomized into 11 experimental groups. 6 groups of rats with uveitis: untreated uveitic rats, rats injected intravenously with NaCl or the JNK-inhibitor (poly-)peptide of SEQ ID NO: 11 and rats injected intravitreously with the vehicle, the JNK-inhibitor (poly-)peptide of SEQ ID NO: 11 or dexamethasone. The 5 additional groups without uveitis were: untreated healthy rats, rats treated by NaCl IV or the JNK-inhibitor (poly-)peptide of SEQ ID NO: 11 IV and rats injected IVT with NaCl or the JNK-inhibitor (poly-)peptide of SEQ ID NO: 11. Three eyes from separate rats were collected per group and used for immunohistochemistry.
(§3) To characterize the cellular infiltrate, sections were double-stained with ED1 and iNOS. […] After staining nuclei with DAPI (Sigma-Aldrich, Saint-Quentin Fallavier, France), sections were mounted in PBS/Glycerol (1/1) and observed by fluorescence photomicroscopy (FXA, Microphot, Nikon, Melville, USA). […] ED1 positive cells and polymorphonuclear cells, identified by the shape of their nuclei stained with DAPI, were quantified on histological sections. […] Results were expressed as mean ± standard error of the mean (SEM).

For experiment [2], the system named is polymorphonuclear cells (PMN). The experiment in a line: Quantification of infiltrating polymorphonuclear cells on histological sections in EIU. Particulars: IVT injection (SEQ ID NO: 11: 0.2 µg/injection); at 24 hours; mean ± SEM. The procedure:
as §1, §2, §3

Experimental findings from patent EP2902035B1, “Cell-permeable peptide inhibitors of the JNK signal transduction pathway for use in the treatment of inflammatory eye diseases” (Xigen Inflammation Ltd., priority 2010, dated 2012) are described below.

Dexamethasone sodium phosphate came in with an EIU clinical scores in experiment [1] of 1.8 ± 0.4 A.U. In addition, the “number of ED1 positive infiltrating cells” value with ED1 positive cells is 79 ± 15. Besides, in experiment [2], the “number of polymorphonuclear cells (PMN)” value was found to be 42 ± 11.
